Here are results for 19 molecules from patent publication US4278762A, “Method for the quantitative determination of plasminogen activators” (Pentapharm AG, priority 1976, dated 1981).

Counter-ions that a name gives are not always drawn. Non-standard residues stand in square brackets, D forms with d. Residues, ends and D or L forms follow the SMILES beside them. *: point of attachment. Hydrocinnamoyl = O=C(CCc1ccccc1)*; dChg = N[C@@H](C(=O)O)C1CCCCC1; pNA = O=[N+]([O-])c1ccc(N*)cc1; Chg = N[C@H](C(=O)O)C1CCCCC1; Cbz = O=C(OCc1ccccc1)*; PhAc = O=C(Cc1ccccc1)*; Bz = O=C(c1ccccc1)*

One test deals with T1, trypsin (Bos taurus, UniProt P00760).
T1 construct: b360 concerns trypsin in duodenal juice
T1 sequence (P00760 24-246): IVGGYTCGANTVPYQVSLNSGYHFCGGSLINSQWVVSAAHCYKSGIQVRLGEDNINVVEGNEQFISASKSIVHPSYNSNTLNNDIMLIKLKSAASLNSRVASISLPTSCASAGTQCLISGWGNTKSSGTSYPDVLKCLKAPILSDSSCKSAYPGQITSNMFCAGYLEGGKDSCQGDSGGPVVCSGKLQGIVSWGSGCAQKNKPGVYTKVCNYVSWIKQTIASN
Put plainly: Kinetic constants Km and vmax of substrate hydrolysis by trypsin (Lineweaver-Burk). Particulars: per NF unit. The class given is biochemical. How it is done:
The enzyme and the substrate are mixed in a buffer solution, and the hydrolysis reaction is followed for 2 to 30 minutes. The concentration of substate [S] is varied, whereas the enzyme concentration is kept constant. If the extinction (OD=optical density) is plotted in a co-ordinate system as a function of time, a curve is obtained the tangent of which at time zero corresponds to the ideal course of the hydrolysis. By means of this tangent the initial rate of the hydrolysis can be determined.
If 1/v is plotted against (1/[S]), a Lineweaver-Burk diagram (cf. "Kurzes Lehrbuch der Biochemie" by P. KARLSON, Georg Thieme-Verlag, Stuttgart, 1967, p. 70) is obtained from which vmax and Km can be determined graphically.
For the determination of the kinetic constants Km and vmax listed in Table I aqueous dilution series of the substrates with concentrations from 0.1 to 2 μmoles/ml were used. […] The value of the quantity of p-nitroaniline formed per minute is a measure for the rate of hydrolysis at a given substrate concentration. […] The kinetic constants Km and vmax were determined from the points of intersection of the curves with the abscissa and the ordinate.
As for `CC(C)[C@@H](N)C(=O)NCC(=O)N[C@@H](CCCNC(=N)N)C(=O)Nc1ccc([N+](=O)[O-])cc1` [XVI] (H-[dV]-Gly-Arg-pNA), the Vmax is reported as 4.17 × 10^-3 μmole/min. NF.

Another test deals with kallikrein. Put plainly: Hydrolysis of tripeptide-p-nitroanilides by kallikrein. The format is biochemical.
Conditions: not given
Take `CC(C)[C@H](N)C(=O)NCC(=O)N[C@@H](CCCNC(=N)N)C(=O)Nc1ccc([N+](=O)[O-])cc1` [B] (H-Val-Gly-Arg-pNA): the “hydrolysis by kallikrein (in words)” value is “not split by kallikrein at all”.
Take `N=C(N)NCCC[C@H](NC(=O)[C@H](Cc1ccccc1)NC(=O)[C@@H]1CCCN1)C(=O)Nc1ccc([N+](=O)[O-])cc1` [A] (H-Pro-Phe-Arg-pNA): the “hydrolysis by kallikrein (in words)” value is “hydrolyzed by kallikrein”.

In another test the target is T2, bovine trypsin (Bos taurus, UniProt P00760).
T2 sequence (P00760 24-246): T1 sequence (P00760 24-246)
Put plainly: Activity of bovine trypsin at constant substrate and enzyme concentrations (Table IV). The format is biochemical. Particulars: substrate concentration 2 × 10^-4 M; pH 8.4, ionic strength 0.30, 37° C., 405 nm. As to the method:
The results listed in Table IV were obtained under the following experimental conditions: In a measuring vessel 1.7 ml of tris-imidazole buffer having a pH of 8.4 and an ionic strength of 0.30 were mixed at 37° C. with 0.1 ml of an aqueous trypsin solution having a concentration of 2 NF units of trypsin per ml. To the mixture 0.2 ml of a 2×10^-3 molar solution of the substrate to be tested was added. Thereafter, the quantity of p-nitroaniline released from the substrate by the action of the trypsin was determined by measuring the change in the optical density Δ OD per minute at a wave length of 405 nm.
Regarding `CC[C@H](C)[C@H](NC(=O)c1ccccc1)C(=O)N[C@@H](CO)C(=O)N[C@@H](CCCNC(=N)N)C(=O)Nc1ccc([N+](=O)[O-])cc1` [Substrate VI, N^α -Bz-Ile-Ser-Arg-pNA.HCl] (Bz-Ile-Ser-Arg-pNA), the “Quantity in nanomoles of p-nitroaniline enzymatically released from the substrate by 1 NF unit of trypsin in 1 minute” value worked out at 19.1 nmol.
The same measure, in the same setting: under `N=C(N)NCCC[C@H](NC(=O)CNC(=O)[C@@H](NC(=O)OCc1ccccc1)C1CCCCC1)C(=O)Nc1ccc([N+](=O)[O-])cc1` [X] (Cbz-[Chg]-Gly-Arg-pNA) stands 46.7 nmol; under `N=C(N)NCCC[C@H](NC(=O)CNC(=O)[C@H](NC(=O)c1ccccc1)C1CCCCC1)C(=O)Nc1ccc([N+](=O)[O-])cc1` [XIV] (Bz-[dChg]-Gly-Arg-pNA), 41.9 nmol.
Still for that read-out and setting: under `CC(C)[C@H](N)C(=O)NCC(=O)N[C@@H](CCCNC(=N)N)C(=O)Nc1ccc([N+](=O)[O-])cc1` [Substrate II, H-Val-Gly-Arg-pNA.2HCl] (H-Val-Gly-Arg-pNA) stands 10,8 nanomoles; under `CC(C)[C@H](NC(=O)c1ccccc1)C(=O)N[C@@H](CO)C(=O)N[C@@H](CCCNC(=N)N)C(=O)Nc1ccc([N+](=O)[O-])cc1` [Substrate V, N^α -Bz-Val-Ser-Arg-pNA.HCl], 15.9 nmol.
Still for that read-out and setting: under `N=C(N)NCCCC(NC(=O)c1ccccc1)C(=O)Nc1ccc([N+](=O)[O-])cc1` (racemic) [N^α --Bz--DL--Arg--pNA . HCl, reference compound] stands 0,45 nanomoles; under `CC(C)C[C@H](NC(=O)c1ccccc1)C(=O)N[C@@H](CO)C(=O)N[C@@H](CCCNC(=N)N)C(=O)Nc1ccc([N+](=O)[O-])cc1` [Substrate VII, N^α -Bz-Leu-Ser-Arg-pNA.HCl] (Bz-Leu-Ser-Arg-pNA), 25.7 nmol; under `CC(C)C[C@H](NC(=O)c1ccccc1)C(=O)NCC(=O)N[C@@H](CCCNC(=N)N)C(=O)Nc1ccc([N+](=O)[O-])cc1` [Substrate IV, N^α -Bz-Leu-Gly-Arg-pNA.HCl] (Bz-Leu-Gly-Arg-pNA), 19.2 nmol.
As to `N=C(N)NCCC[C@H](NC(=O)CNC(=O)[C@H](N)C1CCCCC1)C(=O)Nc1ccc([N+](=O)[O-])cc1` [XIII] (H-[dChg]-Gly-Arg-pNA), the “Quantity in nanomoles of p-nitroaniline enzymatically released from the substrate by 1 NF unit of trypsin in 1 minute” value came out at 28.8 nmol.
Regarding `CC[C@H](C)[C@H](NC(=O)c1ccccc1)C(=O)NCC(=O)N[C@@H](CCCNC(=N)N)C(=O)Nc1ccc([N+](=O)[O-])cc1` [Substrate III, N^α -Bz-Ile-Gly-Arg-pNA.HCl] (Bz-Ile-Gly-Arg-pNA), the “Quantity in nanomoles of p-nitroaniline enzymatically released from the substrate by 1 NF unit of trypsin in 1 minute” value is 28.5 nmol.
For `N=C(N)NCCC[C@H](NC(=O)CNC(=O)[C@@H](N)C1CCCCC1)C(=O)Nc1ccc([N+](=O)[O-])cc1` [XI] (H-[Chg]-Gly-Arg-pNA), the “Quantity in nanomoles of p-nitroaniline enzymatically released from the substrate by 1 NF unit of trypsin in 1 minute” value amounted to 20.0 nmol.
In the case of `CC(C)[C@H](NC(=O)Cc1ccccc1)C(=O)NCC(=O)N[C@@H](CCCNC(=N)N)C(=O)Nc1ccc([N+](=O)[O-])cc1` [Substrate IX, N^α -2-Phenylacetyl-Val-Gly-Arg-pNA.HCl] (PhAc-Val-Gly-Arg-pNA), the “Quantity in nanomoles of p-nitroaniline enzymatically released from the substrate by 1 NF unit of trypsin in 1 minute” value is 17.5 nmol.
Still for that read-out and setting: under `N=C(N)NCCC[C@H](NC(=O)CNC(=O)[C@@H](NC(=O)c1ccccc1)C1CCCCC1)C(=O)Nc1ccc([N+](=O)[O-])cc1` [XII] (Bz-[Chg]-Gly-Arg-pNA) stands 37.9 nmol.
The same measure, in the same setting: under `CC(C)[C@@H](N)C(=O)NCC(=O)N[C@@H](CCCNC(=N)N)C(=O)Nc1ccc([N+](=O)[O-])cc1` [XVI] (H-[dV]-Gly-Arg-pNA) stands 33.3 nmol; under `CC(C)[C@H](NC(=O)[C@H](Cc1ccccc1)NC(=O)c1ccccc1)C(=O)N[C@@H](CCCNC(=N)N)C(=O)Nc1ccc([N+](=O)[O-])cc1` [N^α --Bz--Phe--Val--Arg--pNA . HCl, reference compound] (Bz-Phe-Val-Arg-pNA), 8,4 nanomoles; under `CC(C)[C@H](NC(=O)CCc1ccccc1)C(=O)NCC(=O)N[C@@H](CCCNC(=N)N)C(=O)Nc1ccc([N+](=O)[O-])cc1` [Substrate VIII, N^α -3-Phenylpropionyl-Val-Gly-Arg-pNA.HCl] (Hydrocinnamoyl-Val-Gly-Arg-pNA), 14.2 nmol.
On to `CC(C)[C@H](NC(=O)OCc1ccccc1)C(=O)NCC(=O)N[C@@H](CCCNC(=N)N)C(=O)Nc1ccc([N+](=O)[O-])cc1` [XV] (Cbz-Val-Gly-Arg-pNA), for which the “Quantity in nanomoles of p-nitroaniline enzymatically released from the substrate by 1 NF unit of trypsin in 1 minute” value was determined as 41.3 nmol.

Another test concerns the target T3, urokinase (Homo sapiens, UniProt P00749).
T3 construct: also urine of healthy test persons
The test can be described thus: Amidolytic splitting by urokinase and other plasminogen activators. The format is biochemical.
Conditions: not given
With `CC(C)[C@H](N)C(=O)NCC(=O)N[C@@H](CCCNC(=N)N)C(=O)Nc1ccc([N+](=O)[O-])cc1` [B] (H-Val-Gly-Arg-pNA), the “splitting by urokinase and other plasminogen activators (in words)” value was “rapidly amidolytically split by urokinase”.
